Values after ≈ are worked out from the molar mass of the structure shown.

Type in all cases: cell-based
Assay [1] has as its system Staphylococci, Micrococci. Including MRSA. The experiment in a line: MIC/IC90 broad spectrum, Staphylococci and Micrococci. Conditions: 30 strains, 20 resistant (20 MRSA). On the procedure:
(§1) Cell growth was tested using the Minimal Inhibitory Concentration (MIC) susceptibility tests by use of the microdilution broth method in accordance to the NCCLS Guidelines (NCCLS Guidelines, Methods for Dilution Antimicrobial Susceptibility Tests for Bacteria That Grow Aerobically; Approved Standard, Sixth Edition, Volume 23; Number 2). The minimum inhibitory concentration (MIC), is defined ad the lowest concentration of drug which inhibits growth of the test organism, in the sense that no visible growth is detected (total inhibition of growth). In example 2 MIC of the compounds used on fungal microorganisms was determined from the IC90 measurements according to NCCLS Guidelines.
(§2) A log phase culture of bacteria was diluted with fresh pre-warmed Mueller-Hinton medium and adjusted to a defined OD at 600 nm in order to give a final concentration of 1×10^4-5 bacteria/ml medium. The bacterial culture was transferred to microtiter-plates and culture was added to each well. Drug was added to the bacterial culture in the wells as two-fold dilution series of drug in order to give final concentrations ranging from 0.03 to 128 μg/ml. Trays were incubated at 37° C. by shaking in a robot analyzer, PowerWavex, software KC^4′ Kebo.Lab, Copenhagen, for 16 h and optical densities were measured at 600 nm during the incubation time in order to record growth curves. Wells containing bacterial culture without drug were used as controls to ensure correct inoculum size and bacterial growth during the incubation. Cultures were tested in order to detect contaminations. Each experiment was repeated in triplicate. MIC values represent the mean values of two separate triplicate experiments. Intra- and interassay variation was <5%.
Inhibition 90 (IC90) is defined as: OD responding a 90% growth inhibition.
A broad spectrum of bacteria were cultured and assayed as described above for susceptibility towards N-dealkyl-clopenthixol.

Assay [2] relates to Candida albicans clinical isolate. Description: MIC (90% growth inhibition), broth microdilution NCCLS M27-A, Candida albicans. Conditions: strain 1. Candida albicans FR (fluconazole resistant). As to the method: as §1
The antibacterial effect of demethylated/dealkylated phenothiazine or thioxanthene compounds were studied by growth inhibition studies exposing cells to 0-32 μg/ml of drug. Each experiment was repeated in triplicate. MIC values represent the mean values of two separate triplicate experiments.
4 clinical isolates of Candida sp. (including 3 fluconazole resistant isolates) were subcultured for 24 h on Sabouraud glucose agar before susceptibility testing. Broth microdilution tests were performed according to NCCLS document M27-A (Ref: National Committee for Clinical Laboratory Standards. (1997). Reference Method for Broth Dilution Antifungal Susceptibility Testing of Yeasts: Approved Standard M27-A. NCCLS, Wayne, Pa.). Microtitre plates were read spectrophotometrically at 530 nm, after mixing the wells by pipetting to resuspend yeast sediments. In this experiment, the MIC was defined as the lowest drug dilution resulting in 90% growth inhibition.
(In general: Dilution methods test growth across graded concentrations, often in twofold steps.)

In assay [3] the test system is multiresistant clinical isolate of Staphylococcus epidermidis. Description: MIC, microdilution broth method (NCCLS), Staphylococcus epidermidis. As to the method:
as §1
as §2, with “Drug was added to the bacterial culture in the wells as two-fold dilution series of drug in order to give final concentrations ranging from 0.03 to 128 μg/ml.” left out, “triplicate.” for “triplicate. MIC values represent the mean values of two separate triplicate experiments. Intra- and interassay variation was <5%.”
A clinically relevant isolate of Staphylococcus epidermidis was cultured and assayed as described above for susceptibility towards the compounds listed in table 1.

Take `Clc1ccc2c(c1)/C(=C/CCN1CCNCC1)c1ccccc1S2` [N-dealkyl-trans-clopenthixol, trans-1-(3-(2-chloro-thioxanthen-9-ylidene)propyl)piperazine]: in assay [1], the “IC90 (mean)” value was 0.5 µg/mL (≈ 1.4 µM), the “MIC (mean)” value was 1 µg/mL (≈ 2.8 µM) and the MIC range lay in the range of 0.5 to 2 µg/mL. Besides, in assay [2], the minimal inhibitory concentration (MIC) – broadly, the lowest concentration that inhibits growth of the organism – was found to be 1 µg/mL (≈ 2.8 µM). In assay [3] (Staphylococcus epidermidis multiresistant isolate, Example 6, isomers alone and 1:1 mixture), the minimum inhibitory concentration (MIC) came out at 0.5 µg/mL (≈ 1.4 µM). The minimal inhibitory concentration (MIC) in assay [3] (multiresistant clinical isolate of Staphylococcus epidermidis, Example 1) worked out at 0.5 µg/mL (≈ 1.4 µM).
